“And” between values parts separate entries of the source, which are not always exact repeats. Equal values may be shown once.
Key:
Type in all cases: cell-based, human
[1] = system: heparanase; test: Heparanase level in HepG2 cell lysate (ELISA); settings: HepG2 treated at IC50, 48 h
Procedure: (§1) As previously described, with little modification, HepG2 cells were cultured in T25 flask until they reached 30% confluency. […] After treatment, cells were washed by PBS, trypsinized and centrifuged at 10,000 rpm. The formed pellets were washed twice with PBS and lysed in 1 mL ice-cold radio immunoprecipitation assay (RIPA) lysis buffer (50 mM Tris-HCl, pH 8.0, 150 mM NaCl, 1% Triton X-100, 0.5% sodium deoxycholate, 0.1% sodium dodecyl sulfate) and kept on ice for 20 min. Then, the mixture was centrifuged at 15,000 rpm for 15 min to remove any cell debris. The cell lysate was aliquoted and stored at −80 °C for determination of protein using Pierce BCA Protein Assay Kit (Thermo Fisher Scientific, Waltham/Boston, USA) according to manufacturer’s recommendations and determination of other biochemical parameters including EGFR, urokinase Plasminogen Activator (uPA), B-Cell Lymphoma-2 (Bcl-2), heparanase, and oxidative stress markers (glutathione; GSH and malonaldehyde; MDA).
(§2) Levels of EGFR [37] and heparanase in cell lysate were investigated using commercially available enzyme-linked immunosorbent assay (ELISA) kits supplied by Abcam (Cat. No. ab269558, ab256401, respectively). Levels of uPA [39] were measured using ELISA kit supplied by Creative Diagnostics (New York, USA, Cat. No. DEIA1630). Bcl-2 levels were determined using ELISA kit supplied by Zymed Laboratories, Carlsbad, California (Cat. No. 99-0042). Briefly, standards and samples were added to corresponding 96-well plate coated with suitable antibody. After the washing step, biotinylated anti-human antibody was added to each well. After washing away unbound biotinylated antibody, horseradish peroxidase (HRP)-conjugated streptavidin was pipetted into each well. A peroxidase substrate solution was added to all wells, after washing, and the color developed was proportionate to the amount of EGFR bound. Finally, the stop solution was added and the color intensity was measured at 450 nm.

[2] = system: HepG2 cells; test: Cell cycle analysis by flow cytometry (PI staining); settings: for %Cell Cycle Arrest/Phase %G0-G1 / %Cell Cycle Arrest/Phase %G2-M / %Cell Cycle Arrest/Phase %S / %Cell Cycle Arrest/Phase %pre-G1: HepG2, 5 µM, 48 h; for G2-M arrest, fold higher compared to the negative control: HepG2, negative control 7.1%
Procedure: In 6-well plate, HepG2 (1 × 10^5 cells per well) were treated with either (0.1% DMSO) vehicle or 5 μM of 3a, 4b, and 4c compounds. After 48 h incubation, cells were harvested and fixed for 12 h using ice-cold 70% ethanol at 4 °C. Ethanol was removed and cells were washed by PBS and incubated for 30 min at 37 °C in 0.5 mL of PBS containing 1 mg/mL RNase. Then, cells were stained for 30 min with PI in the dark and the DNA content was determined using flow cytometer.

[3] = system: malonaldehyde (MDA); test: MDA level in HepG2 cell lysate (TBA method); settings: HepG2 treated at IC50, 48 h
Procedure: as §1
Levels of MDA, the marker of lipid peroxidation, were measured by thiobarbituric acid (TBA) method. TBA reacts with MDA in an acidic medium at temperature of 95 °C for 30 min to form colored thiobarbituric acid reactive (TBAR) product, the absorbance of which was measured at 534 nm. The MDA kit was purchased from Biodiagnostics, Cairo, Egypt.

[4] = system: B-Cell Lymphoma-2 (Bcl-2); test: Bcl-2 level in HepG2 cell lysate (ELISA); settings: HepG2 treated at IC50, 48 h
Procedure: as §1, §2

[5] = system: HepG2 cells; test: Annexin V/FITC-PI apoptosis assay; settings: for %Cell Death Early Apoptosis / %Cell Death Late Apoptosis / %Cell Death Total Apoptosis / Necrosis: HepG2, IC50 of the compound, 24 h (method says 48 h)
Procedure: Annexin V/PI double staining kit (eBiosciencesDx) was used to detect apoptotic activity of the selected isatin sulfonamide derivatives. The Annexin V corresponding signal provides a very sensitive marker for cellular apoptosis, while PI was used to detect necrotic or late apoptotic cells, identified by the loss of plasma integrity and loss of nuclear membranes.
Briefly, 1 × 10^5 cells/mL of HepG2 cells were seeded into a 6-well plate and incubated at 37 °C, 5% CO2, overnight. […] After time elapsed, trypsinization of cells was carried out. Washing was done by PBS once, followed by fixation using 70% ethanol. Fixed cells were stored at 4 °C for 2 h, then centrifuged at 500× g for 5 min. Again, cells were washed with PBS prior to staining. An amount of 200 μL of the staining solution (annexin V- fluorescein 5-isothiocyanate (FITC) and PI in binding buffer (10 mM HEPES, 140 mM NaCl, and 2.5 mM CaCl2 at pH 7.4)) were added to the cell suspension and incubated at 37 °C for 20 to 30 min in dark and analyzed with a fluorescence-activated cell sorter (FACS) (BD FACSCalibur, BD Biosciences, California, USA). Data were analyzed using ModFit LT v2.0 (Verity Software House, Topsham, Maine, USA).
These plots were divided into four regions corresponding to: • (1) Viable cells, which are negative to both probes (PI/FITC −/−), • (2) Apoptotic cells, which are PI negative and Annexin positive (PI/FITC −/+), • (3) Late apoptotic cells, which are both PI and Annexin positive (PI/FITC +/+), • (4) Necrotic cells, which are PI positive and Annexin negative (PI/FITC+/−).

[6] = In vitro safety/cell viability MTT assay on normal RPE1 cells; settings: human, RPE1 cells (noncancerous), normal RPE1 cells, MTT
[7] = system: RPE1 cells; test: as above; settings: RPE1, MTT, in words

Row | SMILES | Heparanase level in cell lysate [1] | %Cell Cycle Arrest/Phase %G0-G1 [2] [%] | %Cell Cycle Arrest/Phase %G2-M [2] [%] | %Cell Cycle Arrest/Phase %S [2] [%] | %Cell Cycle Arrest/Phase %pre-G1 [2] [%] | G2-M arrest, fold higher compared to the negative control [2] [fold] | MDA level in cell lysate [3] | Bcl-2 level in cell lysate [4] | %Cell Death Early Apoptosis [5] [%] | %Cell Death Late Apoptosis [5] [%] | %Cell Death Total Apoptosis [5] | Necrosis [5] [%] | Total apoptosis, fold greater than negative control HepG2 cells ([5]; HepG2, negative control 1.47%) [fold] | CC50 at 48 h [6] [µM] | viability at 48 h, 100 p.p.m (μg/mL) [6] [%] | Effect towards the noncancerous cell line (RPE1) [7] | MDA level in cell lysate ([3]; listed as Dox) [µmol/mg protein] | MDA level in cell lysate ([3]; listed as Positive)
1 | Cc1ccc(C(=O)CC2(O)C(=O)Nc3ccc(S(=O)(=O)N4CCCCC4)cc32)cc1 (stereo not drawn) [Compound 3a, 3-hydroxy-3-(2-oxo-2-(p-tolyl)ethyl)-5-(piperidin-1-ylsulfonyl)indolin-2-one] | 1262 ± 35 pmol/mg protein and 1262 ± 35 ^a*^,b* pmol/mg protein | 31.57 | 44.85 | 23.58 | 46.29 | 6.32 | 2.0 ± 0.5 µmol/mg protein and 2.0 ± 0.5 ^a*^,b* µmol/mg protein | 4.2 ± 0.1 nmol/mg protein and 4.2 ± 0.10 ^a*^,b* nmol/mg protein | 3.56 | 29.58 | 46.3% and 46.29% | 13.15 | 31.49 | > 100 | 74 | non-cytotoxic effect | – | –
2 | CC(=O)Nc1ccc(C(=O)C=C2C(=O)Nc3ccc(S(=O)(=O)N4CCCCC4)cc32)cc1 [Compound 4b, N-(4-(2-(2-oxo-5-(piperidin-1-ylsulfonyl)indolin-3-ylidene)acetyl)phenyl)acetamide] | 1827 ± 30 pmol/mg protein and 1827 ± 30 ^a*^, b* pmol/mg protein | 41.25 | 5.49 | 53.26 | 28.14 | – | 3.7 ± 0.4 µmol/mg protein and 3.7 ± 0.4 ^a*^,b* µmol/mg protein | 2.5 ± 0.04 nmol/mg protein and 2.5 ± 0.04 ^a,b* nmol/mg protein | 6.12 | 12.61 | 28.1% and 28.14% | 9.41 | – | > 100 | 66.4 | non-cytotoxic effect | – | –
3 | CC(=O)Nc1cccc(C(=O)C=C2C(=O)Nc3ccc(S(=O)(=O)N4CCCCC4)cc32)c1 [Compound 4c, N-(3-(2-(2-oxo-5-(piperidin-1-ylsulfonyl)indolin-3-ylidene)acetyl)phenyl)acetamide] | 1449 ± 12.5 pmol/mg protein and 1449 ± 12.5 ^a*^,b* pmol/mg protein | 36.44 | 37.62 | 25.94 | 32.02 | 5.30 | 14.5 ± 1.4 µmol/mg protein | 3.6 ± 0.11 nmol/mg protein and 3.6 ± 0.11 ^a*^,b* nmol/mg protein | 2.88 | 18.08 | 32.0% and 32.02% | 11.06 | – | > 100 | 80.7 | non-cytotoxic effect | – | –
4 | COc1cccc2c1C(=O)c1c(O)c3c(c(O)c1C2=O)C[C@@](O)(C(=O)CO)C[C@@H]3O[C@H]1C[C@H](N)[C@H](O)[C@H](C)O1 [Doxorubicin, reference compound] | 902.1 ± 21 ^a* pmol/mg protein | 29.74 | 39 | 31.26 | 42.38 | – | – | 1.7 ± 0.10 ^a* nmol/mg protein | 1.85 | 26.27 | 42.38% | 14.26 | – | – | – | – | 18.5 ± 1.5 | 18.5 ± 1.5 ^a* µmol/mg protein

— publication PMC8945686, “Anticancer Effects with Molecular Docking Confirmation of Newly Synthesized Isatin Sulfonamide Molecular Hybrid Derivatives against Hepatic Cancer Cell Lines” (Biomedicines, 2022)
